Measured values published in US20240334941A1, “HIGH-EFFICACY NATURAL PRESERVATIVES” (BioVeritas, LLC, priority 2023, published 2024).

How the values were obtained:
[1] = test system: mold; assay: Comparative shelf-life study using pup loaves (white bread), days until visible mold
Procedure: Example 2. A comparative shelf-life study was performed using pup loaves by an ISO/IEC 17025:2017 certified laboratory, Great Plains Analytical Laboratory, Kansas City, MO, USA. A standard white bread dough formulation was prepared (pup loaves) for each test group. Approximately 500 grams of dry material was used to prepare 3 pup loaves per test group. Various preservatives, which were to act as mold inhibitors, were added to the doughs. The amount of preservatives added to each dough is reported as a weight percentage based on the mass of flour in the dough (“on flour”). Each mold inhibitor was thoroughly mixed into the formulation for each dough. The percentage inclusion and type of mold inhibitor on flour is outlined in Table 2. Three of the mold inhibitors were made with acetic and propionic acid produced from fermentation using a mixed consortium of naturally occurring microorganisms or microbiome using the methods previously described herein. […] The second and third comparative mold inhibitors were high-efficacy clean-label acetate/propionate mold inhibitors, with one having an acetate/propionate weight ratio of 1:1 (50 wt. % acetate/50 wt. % propionate) (BV1) and the other one having an acetate/propionate weight ratio of 1:6 (14 wt. % acetate/86 wt. % propionate) (BV2). […] The internal temperature of each loaf was recorded upon exiting the oven and prior to packaging (Table 3). In addition, water activity and pH were measured in one of the replicates for each group prior to baking using a water activity meter and a pH meter (Table 4). The product odor (similar to baseline or off odor development), color, and general appearance were evaluated daily. […]
Three sample loaves were produced using each of the inhibitor treatments, and the number of days until mold was observed was recorded for each loaf. […] No off-odors were detected over time in any of the treatments.

[2] = Water activity and pH of tortilla dough prior to baking; type: physicochemical
Procedure: After mixing the tortilla formulation ingredients with the corresponding mold inhibitor, samples of rounded dough were placed onto parchment paper and allowed to ferment for 20 minutes at 82±2° F. and 85% relative humidity. The dough was then pressed into a tortilla form, cooked, cooled, and packaged. This procedure was repeated for each test group. One replicate of dough for each group was tested prior to baking. Water activity was measured using a water activity meter. Measurements for pH were made using a pH meter. The product odor (similar to baseline or off odor development), color, and general appearance were evaluated daily. Each sample was opened and closed daily, until visible mold appeared.

[3] = Water activity and pH of bread dough prior to baking; type: physicochemical
Procedure: Example 2. A comparative shelf-life study was performed using pup loaves by an ISO/IEC 17025:2017 certified laboratory, Great Plains Analytical Laboratory, Kansas City, MO, USA. A standard white bread dough formulation was prepared (pup loaves) for each test group. Approximately 500 grams of dry material was used to prepare 3 pup loaves per test group. Various preservatives, which were to act as mold inhibitors, were added to the doughs. The amount of preservatives added to each dough is reported as a weight percentage based on the mass of flour in the dough (“on flour”). Each mold inhibitor was thoroughly mixed into the formulation for each dough. The percentage inclusion and type of mold inhibitor on flour is outlined in Table 2. Three of the mold inhibitors were made with acetic and propionic acid produced from fermentation using a mixed consortium of naturally occurring microorganisms or microbiome using the methods previously described herein. […] The second and third comparative mold inhibitors were high-efficacy clean-label acetate/propionate mold inhibitors, with one having an acetate/propionate weight ratio of 1:1 (50 wt. % acetate/50 wt. % propionate) (BV1) and the other one having an acetate/propionate weight ratio of 1:6 (14 wt. % acetate/86 wt. % propionate) (BV2). […] After mixing, the dough was divided into disposable bread pans and allowed to ferment for 3 hours at 86±1° F. and 60% relative humidity, proofed for 55 minutes at 109±1° F. and 90% humidity, and baked for 15 minutes at 425±1° F. This procedure was repeated for each test group for a total of 30 loaves of bread. The internal temperature of each loaf was recorded upon exiting the oven and prior to packaging (Table 3). In addition, water activity and pH were measured in one of the replicates for each group prior to baking using a water activity meter and a pH meter (Table 4). The product odor (similar to baseline or off odor development), color, and general appearance were evaluated daily. Each sample was opened and closed daily until visible mold appeared.

[4] = test system: mold; assay: Comparative shelf-life study using flour tortillas, days until visible mold
Procedure: Example 3. A comparative shelf-life study using flour tortillas was performed by an ISO/IEC 17025:2017 certified laboratory, Great Plains Analytical Laboratory, Kansas City, MO. The purpose of this study was to compare the efficacy of preservatives, which were to act as mold inhibitors, in a tortilla formulation. A total of 10 test groups of tortillas were prepared: 9 test groups contained various mold inhibitors and one test group served as control, without a mold inhibitor (no additive). Test groups were stored at ambient temperature for 30 days to determine the overall efficacy of the inhibitors and compare the performance of the inhibitors in the tortilla formulation. […]
After mixing the tortilla formulation ingredients with the corresponding mold inhibitor, samples of rounded dough were placed onto parchment paper and allowed to ferment for 20 minutes at 82±2° F. and 85% relative humidity. […] Water activity was measured using a water activity meter. […] The product odor (similar to baseline or off odor development), color, and general appearance were evaluated daily. […]
The results for the tortilla shelf-life study comparing the preservative/mold inhibitors treatments are graphically shown in FIG. 2. Three tortilla samples were produced using each of the inhibitor treatments, and the number of days until mold was observed was recorded for each sample. […]

[5] = Dough pH out of the mixer (Example 6); type: physicochemical
Procedure: Chemical testing included the evaluation of pH on the dough out of the mixer (Table 15). Measurement for pH was made using a pH meter. A bake score, height, and volume were recorded for each test group. The bake score examined the crust color, loaf symmetry, uniformity of the break and shred, crumb texture, crumb grain, crumb color, taste, and aroma. The pup loaves were evaluated for visible mold every day for the shelf-life portion of the study. A photograph of the visible mold was taken the day it was detected. The sensory analysis consisted of a quantitative descriptive analysis and a ranking performed by a trained panel. […] The descriptive analysis covered the crumb texture and flavor of the test groups. The sensory analysis was performed on Days 3, 6, 9, 12, and 15. No sensory analysis was performed on bread that had visible mold.
The temperature of the loaves out of the oven and prior to packaging were recorded in Table 14. Dough was removed from the mixing bowl and then analyzed for pH.

[6] = test system: mold; assay: Shelf-life study using pup loaves (Example 6), day of visible mold; settings: ambient temperature
Procedure: Example 6. In another example, a comparative shelf-life and sensory study using pup loaves was performed by an ISO/IEC 17025:2017 certified laboratory, Great Plains Analytical Laboratory, Kansas City, MO. A total of seven test groups of white bread in a pup loaf formulation were prepared. […] Test groups were stored at ambient temperature for between 7 and 15 days to determine the overall efficacy of the inhibitors and compare the performance of the inhibitors in the bread formulation. Sensory analysis was performed examining the flavor and crumb texture for all samples. The studies were conducted concurrently.
A standard white bread dough formulation was prepared for each test group. Three pup loaves were prepared for each test group for the visual examination portion of the study. […] The bread was baked for 15 minutes at 425±1° F. Internal temperatures were recorded upon exiting the oven and prior to packaging. […]
Chemical testing included the evaluation of pH on the dough out of the mixer (Table 15). […] A bake score, height, and volume were recorded for each test group. […] The pup loaves were evaluated for visible mold every day for the shelf-life portion of the study. A photograph of the visible mold was taken the day it was detected. The sensory analysis consisted of a quantitative descriptive analysis and a ranking performed by a trained panel. […]

[7] = 0.3 wt. % on flour (order of Table 2)
[8] = 1 wt. % on flour (order of Table 2)

| Compound | mold after day 30 up to day 45 ([1]; 1 wt. % on flour, bags no longer opened each day) | day visible mold developed (replicate loaves) ([1]; 1 wt. % on flour, stored 70-73 F, opened daily, 30-day study) | Water Activity [2, 7] | pH [2, 7] | Water Activity [2, 8] | pH [2, 8] | Water Activity [3, 7] | pH [3, 7] | Water Activity [3, 8] | pH [3, 8] | days on which visible mold developed (replicates) ([4]; 1 wt. % on flour, 68-73 F, opened daily) | mold after day 30 up to day 45 ([4]; 1 wt. %, remaining replicate, bags no longer opened) | mold inhibitor performance ([1]; 0.3 wt. % on flour) | Dough pH ([5]; 0.5 wt. % mold inhibitor) | Dough pH ([5]; 0.8 wt. % mold inhibitor) | Day of Visible Mold ([6]; 0.5 wt. %) | Day of Visible Mold ([6]; 0.8 wt. %) |
| --- | --- | --- | --- | --- | --- | --- | --- | --- | --- | --- | --- | --- | --- | --- | --- | --- | --- |
| CCC(=O)[O-].CCC(=O)[O-].[Ca+2] [BV CP, calcium propionate] | no signs of mold growth or off odor at day 45 | > 30 days | 0.9548 | 6.98 | 0.9612 | 6.87 | 0.9535 | 5.65 | 0.9448 | 5.73 | 30 days | > 45 days | – | – | – | – | – |
| CCC(=O)[O-].CCC(=O)[O-].[Ca+2] [CCP, calcium propionate, reference compound] | – | – | 0.9502 | 6.7 | – | – | 0.9564 | 5.40 | – | – | – | – | performed similar to the natural calcium propionate (BV CP) | 5.34 | 5.53 | 7 days | 9 days |
